From patent publication US12472171B2, “Methods for treating hypercholesterolemia” (BIOGEN MA INC., priority 2020, dated 2025)

Key:
rat OPCs = assay: Sterol levels (Metabolon HD4) in rat OPC cultures treated with Compound 1; type: cell-based; details: rat OPC culture
Protocol: Enriched populations of oligodendrocytes from female Sprague Dawley postnatal day 2 (P2) rats were grown in culture. Briefly, the forebrain was dissected and placed in Hank's buffered salt solution (HBSS) (Life technologies). The tissue was cut into 1 mm fragments and incubated at 37° C. for 15 min in 0.01% trypsin and 10 μg/ml DNase. Dissociated cells were plated on poly-D-lysine (PDL)-coated T75 tissue culture flasks and grown at 37° C. for 10 days in Dulbecco's Modified Eagle Medium (DMEM) with 20% fetal calf serum (Life technologies). Oligodendrocyte precursors (A2B5+) were collected by shaking the flask overnight at 200 rpm at 37° C., resulting in a 95% pure population. Cultures were maintained in a defined growth medium (high glucose DMEM, 0.1% BSA, 50 ug/ml Apo-transferrin, 5 ug/ml insulin, 30 nM sodium selenite, 10 nM biotin and hydrocortisone) with 10 ng/ml fibroblast growth factor/platelet-derived growth factor (FGF/PDGF) (Peprotech) for 2-3 days. For assessing the ability of Compound 1 to promote the differentiation of rat A2B5+ progenitor cells into mature myelin basic protein positive (MBP+) myelinating oligodendrocytes, A2B5+ cells were plated into 10-cm PDL coated culture plates in FGF/PDGF free growth medium supplemented with 10 ng/ml CNTF and 15 nM T3 and were immediately treated for with Compound 1. The cell pellets were collected at 24 hours and 72 hours in culture and stored at −80° C. The cell pellets were subsequently shipped to Metabolon (Morrisville, NC, USA) and maintained at −80° C. during shipping and storage until processed. The cell pellet samples were extracted with methanol under vigorous shaking for 2 min (Glen Mills GenoGrinder 2000) to precipitate protein and dissociate small molecules bound to protein or trapped in the precipitated protein matrix, followed by centrifugation to recover chemically diverse metabolites. The resulting extract were next aliquot and analyzed on Metabolon's HD4 platform. Several types of quality control samples, including recovery standards added prior to extraction, technical replicates from a pool combined from each experimental sample, process and solvent blanks, and spiked a cocktail of QC standards, were applied during sample preparation and analysis for quality assessment and filtering failed samples.

healthy volunteers [1] = assay: 28-day once-daily dosing study in healthy volunteers (Study 1), circulating total cholesterol and oxysterols; type: in vivo, human
Protocol: Forty-two healthy volunteers received Compound 1 QD for 28 days (or before early withdrawal), with 6 individual participants per cohort receiving 1 mg (Cohort 1), 3 mg (Cohort 2), 10 mg (Cohort 3), 30 mg (Cohort 4), 60 mg loading dose with 10 mg maintenance dosing (Cohort 5) Compound 1, 60 mg (Cohort 6), or 90 mg loading dose on Day 1 and Day 2 with 30 mg maintenance dosing (Cohort 7). There were also 14 participants who received placebo in the study; 1 participant in Cohort 4 was misdosed on Day 19 and appeared to have received at least one 30 mg dose of Compound 1. The following protocol deviations were reported for participants in Cohorts 1 through 5: they received predose water ad lib (not restricted for 1 hour before and 1 hour after dose) and a meal administered 30 minutes postdose (not 4 hours postdose). A total of 49 participants completed treatment, including 37 participants who received active treatment.
Participants received the first dose of study treatment (Compound 1 or placebo) on Day 1 and continued to receive once-daily study treatment through Day 28. Participants remained in the clinic throughout the dosing period. Participants were discharged on Day 29 after completing all assessments.
Blood was periodically withdrawn from each volunteer and immediately stored at −80° C. For measuring metabolite concentrations in human serum, the samples were centrifuged and the resulting supernatant was used for further analysis.
Free oxysterols were extracted from the samples with methanol using the Biocrates Kit filter plate. The plate was loaded with an internal standard mixture beforehand. The metabolite concentrations were determined by UHPLC-MS/MS with multiple reaction monitoring (MRM) in a positive mode using a SCIEX API 5500 QTRAP® (AB SCIEX, Darmstadt, German) instrument with electrospray ionization (ESI). Data were quantitated using appropriate mass spectrometry software and imported in Biocrates Met/DQ™ software for further analysis.

healthy volunteers [2] = assay: Population PK/PD model (Monolix) of circulating cholesterol versus Compound 1 plasma concentration, from three phase I studies; design: species or system human
Protocol: FIG. 2 is a bar graph showing predicted steady-state concentrations of circulating cholesterol levels during treatment with Compound 1 for subject administered placebo, 1 mg, 3 mg, 10 mg, 30 mg or 60 mg per day of Compound 1 at pharmacodynamic steady-state. The predicted concentrations are from simulations based on data from three phase I trials of Compound 1.
Based on these observations, a population PK/PD model was developed using Monolix to describe circulating cholesterol concentration as a function of plasma concentration of Compound 1 and exposure. The model was developed from cholesterol data from the study described above (Study 1) as well as two additional clinical studies (Study 2 and Study 3) in healthy volunteers. In Study 2, thirty healthy volunteers received a single oral dose of Compound 1 with 6 individual participants per cohort receiving 3 mg (Cohort 1), 10 mg (Cohort 2), 30 mg (Cohort 3), 60 mg (Cohort 4), 100 mg (Cohort 5). There were also 9 participants who received placebo in the study. In Study 3, 8 healthy adult volunteers received a single dose of 30 mg of Compound 1.

Compound: CC[C@H]1CC[C@@H](Oc2ccc3cc(CN4CCC(C(=O)O)CC4)ccc3c2)CC1 [Compound 1, 1-((6-(((1s,4s)-4-ethylcyclohexyl)oxy)naphthalen-2-yl)methyl)piperidine-4-carboxylic acid]
- 7-DHC versus vehicle control (rat OPCs; 24 hours): 8.3 folds
- cholesterol versus vehicle control (rat OPCs; 24 hours): 0.64 folds
- desmosterol versus vehicle control (rat OPCs; 24 hours): 0.44 folds
- 7-DHC versus vehicle control (rat OPCs; 72 hours): 12.86 folds
- cholesterol versus vehicle control (rat OPCs; 72 hours): insignificant change
- desmosterol versus vehicle control (rat OPCs; 72 hours): 0.4 folds
- accumulation of 7-dehydrocholesterol (7-DHC) (healthy volunteers [1]; healthy human volunteers): causes accumulation of 7-dehydrocholesterol (7-DHC)
- average decrease in total cholesterol (healthy volunteers [1]; healthy volunteers, 60 mg dose, Study 1): approximately 20%
- reduction in total circulating cholesterol (healthy volunteers [1]; healthy volunteers, QD for 28 days, FIG. 1): gradual, time- and dose-dependent reduction in total circulating cholesterol
- model-predicted decrease of circulating cholesterol (healthy volunteers [2]; 60 mg QD, steady state): approximately 35%
- predicted time for circulating cholesterol to return to baseline after discontinuation (healthy volunteers [2]; after discontinuation of treatment): ≤ 30 days
- steady-state concentration of Compound 1 (healthy volunteers [2]; daily dose of 60 mg): about 3 μg/mL
- time of increase to steady-state concentrations of Compound 1 in plasma (healthy volunteers [2]; daily dosing, cholesterol reduction predicted over the same time frame): approximately 15 days
- EC50 for reduction in circulating cholesterol concentration (healthy volunteers [2]; plasma concentration of Compound 1, population PK/PD model): about 3 μg/mL
- circulating cholesterol concentration in the model by daily dose (healthy volunteers [2]; population PK/PD model): reduced at all daily doses higher than 10 mg
